Measured values from ChEMBL document CHEMBL1123275, “Synthesis and renal vasodilator activity of some dopamine agonist 1-aryl-2,3,4,5-tetrahydro-1H-3-benzazepine-7,8-diols: halogen and methyl analogues of fenoldopam” (J Med Chem, 1986).
Calls of active or inactive are those of the source. The rule behind the calls is not given here.

What was measured:
Canis familiaris [1] = experiment: cardiovascular activity was determined in anesthetized dogs.(Mean arterial blood pressure); type: functional; details: Canis lupus familiaris
Canis familiaris [2] = species: Canis familiaris; experiment: Effective dose against Iliac vascular resistance (IVR); type: functional; details: Canis lupus familiaris
Canis familiaris [3] = species: Canis familiaris; experiment: Maximum percent decrease in renal vascular resistance.; type: functional, Canis lupus familiaris
Canis familiaris [4] = experiment: Renal vasodilator activity was determined in anesthetized dogs; type: functional; details: Canis lupus familiaris
Rattus norvegicus [5] = species: Rattus norvegicus; experiment: In vitro dose stimulating D-1 adenylate cyclase in rat caudate nuclei at 10 uM; type: functional
Rattus norvegicus [6] = species: Rattus norvegicus; experiment: In vitro inhibition of dopamine stimulated production of [14C]cAMP from [14C]-ATP in homogenates of rat caudate at the concentration of 10 uM; type: functional
Canis familiaris [7] = experiment: cardiovascular activity was determined in anesthetized dogs.(Heart rate ); type: functional; details: Canis lupus familiaris
Rattus norvegicus [8] = species: Rattus norvegicus; experiment: In vitro inhibition of dopamine stimulated production of [14C]cAMP from [14C]-ATP in homogenates of rat caudate; No significant activity at 10 uM; type: functional
Rattus norvegicus [9] = species: Rattus norvegicus; experiment: (§1) In vitro dose stimulating D-1 adenylate cyclase in rat caudate nuclei; No significant activity at 10 uM; type: functional
Rattus norvegicus [10] = experiment: Compound was tested for its CNS activity in vivo by determining drug-induced rotation in rats with 6-hydroxydopamine induced lesions of the SNx rats after ip administration measured as dose-turns; 10-no significant activity; type: functional, organism-based; details: Central nervous system
Rattus norvegicus [11] = species: Rattus norvegicus; experiment: In vitro dose stimulating D-1 adenylate cyclase in rat caudate nuclei; type: functional, organism-based
Rattus norvegicus [12] = experiment: Compound was tested for its CNS activity in vivo in SNx rats with 6-hydroxydopamine induced lesions after ip administration; type: functional, Central nervous system
Rattus norvegicus [13] = experiment: Compound was tested for its CNS activity in vivo in SNx rats with 6-hydroxydopamine induced lesions after ic administration; type: functional, Central nervous system
Rattus norvegicus [14] = species: Rattus norvegicus; experiment: In vitro dose stimulating D-1 adenylate cyclase in rat caudate nuclei as % dopamine response at 10 uM; type: functional
Rattus norvegicus [15] = species: Rattus norvegicus; experiment: as §1; type: functional; remark: listed apart in the source
Rattus norvegicus [16] = species: Rattus norvegicus; experiment: In vitro inhibition of dopamine stimulated production of [14C]-cAMP from [14C]-ATP in homogenates of rat caudate; type: functional
Rattus norvegicus [17] = experiment: Compound was tested for its CNS activity in vivo in SNx rats with 6-hydroxydopamine induced lesions after ip administration measured as dose-turns; 10-No significant activity; type: functional, organism-based; details: Central nervous system
Canis familiaris [18] = experiment: Cardiovascular activity was determined in anesthetized dogs.(Heart rate ); type: functional; details: Canis lupus familiaris
Canis familiaris [19] = experiment: Cardiovascular activity was determined in anesthetized dogs.(Mean arterial blood pressure); type: functional; details: Canis lupus familiaris, Artery
Rattus norvegicus [20] = species: Rattus norvegicus; experiment: In vitro inhibition of dopamine stimulated production of [14C]cAMP from [14C]-ATP in homogenates of rat caudate at the concentration of 1 uM; type: functional
Canis familiaris [21] = experiment: Renal vasodilator activity in anesthetized dogs; no significant activity at 1000 ug/kg/stat; type: functional, organism-based; details: Canis lupus familiaris
Canis familiaris [22] = experiment: Renal vasodilator activity in anesthetized dogs; I= no significant activity at 300 ug/kg/min; type: functional, organism-based; details: Canis lupus familiaris

| EC50 (Rattus norvegicus [11]) [nM] | SMILES | ED20 (Canis familiaris [1]) [mg/kg] | ED30 (Canis familiaris [2]) [mg/kg] | Decrease (Canis familiaris [3]) [%] | ED15 (Canis familiaris [4]) [mg/kg] | ED20 (Canis familiaris [7]) [mg/kg] | RD500 (Rattus norvegicus [12]) | other results |
| --- | --- | --- | --- | --- | --- | --- | --- | --- |
|  | CS(=O)(=O)O.Cc1c(O)c(O)cc2c1CCNCC2c1ccc(O)cc1 (stereo unspecified) | 6.06 | 6.06 | 41 | 0.0028 | 6.06 |  | Stimulation (Rattus norvegicus [5]): 30%; inhibition (Rattus norvegicus [6]): 50% |
|  | Br.Oc1ccc(C2CNCCc3c(F)c(O)c(O)c(F)c32)cc1 (stereo unspecified) |  |  |  |  |  |  | inhibition (Rattus norvegicus [8]): inactive; EC50 (Rattus norvegicus [9]): Not Active |
| 150 | Br.Oc1ccc(C2CNCCc3c2cc(O)c(O)c3Br)cc1 (stereo unspecified) | 30.4 | 0.07 | 56 | 0.005 | 30.4 |  | RD500 (Rattus norvegicus [10]): inactive |
|  | Oc1cc2c(cc1O)C(c1ccccc1)CNCC2 (stereo unspecified) [SKF-38393] | 1.72 | 0.735 | 18 | 0.035 | 1.05 | 0.7 mg/kg | RD500 (Rattus norvegicus [13]): 0.18 ug rat-1 |
|  | Br.Oc1ccc(C2CNCCc3c2cc(O)c(O)c3I)cc1 (stereo unspecified) | 6.06 | 6.06 | 41 | 0.0042 | 6.06 |  | Stimulation (Rattus norvegicus [14]): 36%; inhibition (Rattus norvegicus [6]): 55% |
| 100 | Br.Cc1c(O)c(O)cc2c1CCNCC2c1ccccc1 (stereo unspecified) |  |  |  |  |  | 1.28 mg/kg |  |
|  | Cc1c(O)c(O)c(Cl)c2c1CCNCC2c1ccc(O)cc1.Cl (stereo unspecified) | 6.09 | 6.09 | 42 | 0.03 | 6.09 |  | Stimulation (Rattus norvegicus [15]): inactive; inhibition (Rattus norvegicus [6]): 29% |
| 22000 | CN1CCc2c(cc(O)c(O)c2Cl)C(c2ccc(O)cc2)C1 (stereo unspecified) |  |  |  |  |  |  | IC50 (Rattus norvegicus [16]): 1400 nM |
|  | Br.Cc1c(O)c(O)cc2c1C(c1ccc(O)cc1)CNCC2 (stereo unspecified) |  |  |  |  |  |  | inhibition (Rattus norvegicus [8]): inactive; EC50 (Rattus norvegicus [9]): Not Active |
|  | Br.CN1CCc2c(cc(O)c(O)c2F)C(c2ccc(O)cc2)C1 (stereo unspecified) |  |  |  |  |  |  | Stimulation (Rattus norvegicus [5]): 36%; inhibition (Rattus norvegicus [6]): 55% |
| 1250 | Cl.Oc1c(O)c(Cl)c2c(c1Cl)CCNCC2c1ccccc1 (stereo unspecified) | 6.08 | 6.08 | 59 | 0.01 | 6.08 |  | inhibition (Rattus norvegicus [8]): inactive |
| 200 | Oc1ccc(C2CNCCc3cc(O)c(O)cc32)cc1 (stereo unspecified) |  |  |  |  |  |  | RD500 (Rattus norvegicus [17]): inactive |
| 100 | Br.Oc1cc2c(c(Br)c1O)CCNCC2c1ccccc1 (stereo unspecified) | 6.08 | 6.08 | 42 | 0.009 | 6.08 | 0.34 mg/kg |  |
| 200 | Br.Oc1ccc(C2CNCCc3c2cc(O)c(O)c3F)cc1 (stereo unspecified) | 6.06 | 6.06 | 28 | 0.00083 | 0.00581 |  |  |
|  | Br.Oc1cc2c(c(Cl)c1O)CCNCC2c1ccccc1 (stereo unspecified) | 6.07 | 2.92 | 39 | 0.0035 | 0.378 | 0.3 mg/kg | RD500 (Rattus norvegicus [13]): 0.22 ug rat-1 |
|  | Oc1ccc(C2CNCCc3c2cc(O)c(O)c3C(F)(F)F)cc1 (stereo unspecified) |  |  |  |  |  |  | RD500 (Rattus norvegicus [10]): inactive |
|  | Br.CN1CCc2c(cc(O)c(O)c2Br)C(c2ccccc2)C1 (stereo unspecified) |  |  |  |  |  | 0.015 mg/kg | Stimulation (Rattus norvegicus [5]): 30%; IC50 (Rattus norvegicus [16]): 320 nM |
|  | Br.Oc1cccc(C2CNCCc3c2cc(O)c(O)c3Cl)c1 (stereo unspecified) | 2.12 | 0.0119 | 49 | 0.00035 | 0.36 |  | RD500 (Rattus norvegicus [10]): inactive |
| 40 | Br.Oc1cc2c(c(F)c1O)CCNCC2c1ccccc1 (stereo unspecified) |  | 54 | 36 | 0.009 |  |  | ED20 (Canis familiaris [18]): 54 mg/kg; ED20 (Canis familiaris [19]): 54 mg/kg; inhibition (Rattus norvegicus [20]): 31%; inhibition (Rattus norvegicus [6]): 17% |
|  | CN1CCc2c(cc(O)c(O)c2Cl)C(c2ccccc2)C1.Cl (stereo unspecified) |  |  |  |  |  | 0.03 mg/kg | Stimulation (Rattus norvegicus [5]): 30%; IC50 (Rattus norvegicus [16]): 600 nM |
|  | Cc1c(O)c(O)c(Cl)c2c1C(c1ccc(O)cc1)CNCC2 (stereo unspecified) |  |  |  |  |  |  | inhibition (Rattus norvegicus [8]): inactive; Stimulation (Rattus norvegicus [15]): inactive |
|  | NCCc1ccc(O)c(O)c1 [DOPAMINE] |  | 0.151 | 43 | 0.0035 | 0.378 |  | ED20 (Canis familiaris [19]): 0.378 mg/kg; RD500 (Rattus norvegicus [13]): 0.1 ug rat-1 |
|  | Br.Oc1ccc(C2CNCCc3cc(O)c(O)c(Cl)c32)cc1 (stereo unspecified) |  |  |  |  |  |  | inhibition (Rattus norvegicus [8]): inactive; EC50 (Rattus norvegicus [9]): Not Active |
|  | CN1CCc2cc(O)c(O)cc2C(c2ccccc2)C1.Cl (stereo unspecified) |  |  |  |  |  | 0.1 mg/kg | RD500 (Rattus norvegicus [13]): 0.06 ug rat-1; Stimulation (Rattus norvegicus [5]): 20%; Activity (Canis familiaris [21]): inactive; IC50 (Rattus norvegicus [16]): 630 nM |
|  | Cc1c(O)c(O)c(C)c2c1CCNCC2c1ccc(O)cc1 (stereo unspecified) |  |  |  |  |  |  | inhibition (Rattus norvegicus [8]): inactive; Stimulation (Rattus norvegicus [15]): inactive |
|  | Br.Cc1c(O)c(O)cc2c1CCN(C)CC2c1ccccc1 (stereo unspecified) |  |  |  |  |  | 0.05 mg/kg | Stimulation (Rattus norvegicus [5]): 20%; Activity (Canis familiaris [22]): inactive; IC50 (Rattus norvegicus [16]): 440 nM |
| 48 | CS(=O)(=O)O.Oc1ccc(C2CNCCc3c2cc(O)c(O)c3Cl)cc1 (stereo unspecified) [FENOLDOPAM MESYLATE] | 1.82 | 1.82 | 59 | 0.0003 | 1.82 | 0.5 ug rat-1 | RD500 (Rattus norvegicus [10]): inactive |
| 2600 | Cl.Oc1ccc(C2CNCCc3c(Cl)c(O)c(O)c(Cl)c32)cc1 (stereo unspecified) | 6.2 | 6.2 | 41 | 0.62 | 6.2 |  | RD500 (Rattus norvegicus [10]): inactive |
